Source: PubChem BioAssay (NCI)
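Method: 48-hour compound exposure of cells in 96-well plates, five concentrations, linear interpolation of endpoints. TGI: total growth inhibition.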

What was measured:
Test in all cases: NCI-60 cell line screen, 48 h
LOX IMVI melanoma = system: LOX IMVI melanoma
OVCAR-4 ovarian = system: OVCAR-4 ovarian
M19-MEL melanoma = system: M19-MEL melanoma
NCI-H522 lung = system: NCI-H522 lung
NCI-H23 lung = system: NCI-H23 lung
SK-MEL-5 melanoma = system: SK-MEL-5 melanoma
SF-268 CNS = system: SF-268 CNS
SNB-19 CNS = system: SNB-19 CNS
HOP-18 NSCLC = system: HOP-18 NSCLC
KM20L2 colon = system: KM20L2 colon
SR leukemia = system: SR leukemia
RXF 393 renal = system: RXF 393 renal
OVCAR-5 ovarian = system: OVCAR-5 ovarian
NCI-H460 lung = system: NCI-H460 lung
A498 renal = system: A498 renal
MOLT-4 leukemia = system: MOLT-4 leukemia
ACHN renal = system: ACHN renal
UACC-257 melanoma = system: UACC-257 melanoma
TK-10 renal = system: TK-10 renal
EKVX NSCLC = system: EKVX NSCLC
UACC-62 melanoma = system: UACC-62 melanoma
A549 NSCLC = system: A549 NSCLC
SF-295 CNS = system: SF-295 CNS
SNB-78 CNS = system: SNB-78 CNS
DLD-1 colon = system: DLD-1 colon
SNB-75 CNS = system: SNB-75 CNS
SW-620 colon = system: SW-620 colon
K-562 leukemia = system: K-562 leukemia
HL-60(TB) leukemia = system: HL-60(TB) leukemia
SK-OV-3 ovarian = system: SK-OV-3 ovarian
RPMI-8226 leukemia = system: RPMI-8226 leukemia
HCT-15 colon = system: HCT-15 colon
CCRF-CEM leukemia = system: CCRF-CEM leukemia
HCT-116 colon = system: HCT-116 colon
HCC-2998 colon = system: HCC-2998 colon
XF 498 CNS = system: XF 498 CNS
SN12C renal = system: SN12C renal
UO-31 renal = system: UO-31 renal
SK-MEL-2 melanoma = system: SK-MEL-2 melanoma
MALME-3M melanoma = system: MALME-3M melanoma
HOP-62 NSCLC = system: HOP-62 NSCLC
CAKI-1 renal = system: CAKI-1 renal
DMS 273 small cell lung = system: DMS 273 small cell lung
OVCAR-8 ovarian = system: OVCAR-8 ovarian
LXFL 529 NSCLC = system: LXFL 529 NSCLC
U251 CNS = system: U251 CNS
SF-539 CNS = system: SF-539 CNS
RXF-631 renal = system: RXF-631 renal
HT29 colon = system: HT29 colon
IGROV1 ovarian = system: IGROV1 ovarian
M14 melanoma = system: M14 melanoma
OVCAR-3 ovarian = system: OVCAR-3 ovarian
NCI-H226 lung = system: NCI-H226 lung
DMS 114 small cell lung = system: DMS 114 small cell lung
COLO 205 colon = system: COLO 205 colon
KM12 colon = system: KM12 colon
SK-MEL-28 melanoma = system: SK-MEL-28 melanoma
HOP-92 NSCLC = system: HOP-92 NSCLC
786-0 renal = system: 786-0 renal

COc1ccc(/C(C=O)=C(\Cl)c2ccc(OC)c(OC)c2)cc1
TGI (LOX IMVI melanoma): > 100 µM | TGI (OVCAR-4 ovarian): > 100 µM | TGI (M19-MEL melanoma): > 100 µM | TGI (NCI-H522 lung): 33.5 µM | TGI (NCI-H23 lung): > 100 µM | TGI (SK-MEL-5 melanoma): > 100 µM | TGI (SF-268 CNS): > 100 µM | TGI (SNB-19 CNS): > 100 µM | TGI (HOP-18 NSCLC): > 100 µM | TGI (KM20L2 colon): > 100 µM | TGI (SR leukemia): 31.7 µM | TGI (RXF 393 renal): > 100 µM | TGI (OVCAR-5 ovarian): > 100 µM | TGI (NCI-H460 lung): > 100 µM | TGI (A498 renal): > 100 µM | TGI (MOLT-4 leukemia): > 100 µM | TGI (ACHN renal): > 100 µM | TGI (UACC-257 melanoma): > 100 µM | TGI (TK-10 renal): > 100 µM | TGI (EKVX NSCLC): > 100 µM | TGI (UACC-62 melanoma): > 100 µM | TGI (A549 NSCLC): > 100 µM | TGI (SF-295 CNS): > 100 µM | TGI (SNB-78 CNS): > 100 µM | TGI (DLD-1 colon): > 100 µM | TGI (SNB-75 CNS): 60.7 µM | TGI (SW-620 colon): > 100 µM | TGI (K-562 leukemia): > 100 µM | TGI (HL-60(TB) leukemia): > 100 µM | TGI (SK-OV-3 ovarian): > 100 µM | TGI (RPMI-8226 leukemia): > 100 µM | TGI (HCT-15 colon): > 100 µM | TGI (CCRF-CEM leukemia): > 100 µM | TGI (HCT-116 colon): > 100 µM | TGI (HCC-2998 colon): > 100 µM | TGI (XF 498 CNS): 50.2 µM | TGI (SN12C renal): > 100 µM | TGI (UO-31 renal): > 100 µM | TGI (SK-MEL-2 melanoma): > 100 µM | TGI (MALME-3M melanoma): > 100 µM | TGI (HOP-62 NSCLC): > 100 µM | TGI (CAKI-1 renal): > 100 µM | TGI (DMS 273 small cell lung): > 100 µM | TGI (OVCAR-8 ovarian): > 100 µM | TGI (LXFL 529 NSCLC): > 100 µM | TGI (U251 CNS): > 100 µM | TGI (SF-539 CNS): > 100 µM | TGI (RXF-631 renal): > 100 µM | TGI (HT29 colon): > 100 µM | TGI (IGROV1 ovarian): > 100 µM | TGI (M14 melanoma): > 100 µM | TGI (OVCAR-3 ovarian): > 100 µM | TGI (NCI-H226 lung): > 100 µM | TGI (DMS 114 small cell lung): > 100 µM

O=C(Nc1nc(=S)[nH][nH]1)C(=O)C(c1cnc2ccc([N+](=O)[O-])cc2n1)[N+](=O)[O-] (stereo not given)
TGI (LOX IMVI melanoma): > 100 µM | TGI (OVCAR-4 ovarian): > 100 µM | TGI (M19-MEL melanoma): > 100 µM | TGI (COLO 205 colon): > 100 µM | TGI (NCI-H522 lung): > 100 µM | TGI (NCI-H23 lung): > 100 µM | TGI (SK-MEL-5 melanoma): > 100 µM | TGI (SF-268 CNS): > 100 µM | TGI (SNB-19 CNS): > 100 µM | TGI (HOP-18 NSCLC): > 100 µM | TGI (KM20L2 colon): > 100 µM | TGI (SR leukemia): > 100 µM | TGI (RXF 393 renal): > 100 µM | TGI (OVCAR-5 ovarian): > 100 µM | TGI (NCI-H460 lung): > 100 µM | TGI (A498 renal): > 100 µM | TGI (MOLT-4 leukemia): > 100 µM | TGI (ACHN renal): > 100 µM | TGI (UACC-257 melanoma): > 100 µM | TGI (TK-10 renal): > 100 µM | TGI (EKVX NSCLC): > 100 µM | TGI (UACC-62 melanoma): > 100 µM | TGI (A549 NSCLC): > 100 µM | TGI (SF-295 CNS): > 100 µM | TGI (SNB-78 CNS): > 100 µM | TGI (DLD-1 colon): > 100 µM | TGI (SNB-75 CNS): > 100 µM | TGI (SW-620 colon): > 100 µM | TGI (K-562 leukemia): > 100 µM | TGI (HL-60(TB) leukemia): > 100 µM | TGI (SK-OV-3 ovarian): > 100 µM | TGI (RPMI-8226 leukemia): > 100 µM | TGI (HCT-15 colon): > 100 µM | TGI (CCRF-CEM leukemia): > 100 µM | TGI (HCT-116 colon): > 100 µM | TGI (HCC-2998 colon): > 100 µM | TGI (KM12 colon): > 100 µM | TGI (XF 498 CNS): > 100 µM | TGI (SN12C renal): > 100 µM | TGI (UO-31 renal): > 100 µM | TGI (MALME-3M melanoma): > 100 µM | TGI (HOP-62 NSCLC): > 100 µM | TGI (CAKI-1 renal): > 100 µM | TGI (SK-MEL-28 melanoma): > 100 µM | TGI (OVCAR-8 ovarian): > 100 µM | TGI (LXFL 529 NSCLC): > 100 µM | TGI (U251 CNS): > 100 µM | TGI (SF-539 CNS): > 100 µM | TGI (HOP-92 NSCLC): > 100 µM | TGI (RXF-631 renal): > 100 µM | TGI (786-0 renal): > 100 µM | TGI (HT29 colon): > 100 µM | TGI (IGROV1 ovarian): > 100 µM | TGI (M14 melanoma): > 100 µM | TGI (OVCAR-3 ovarian): > 100 µM | TGI (NCI-H226 lung): > 100 µM | TGI (DMS 114 small cell lung): > 100 µM

CCc1c(OC(C)=O)c2c(NC3OC(COC(C)=O)C(OC(C)=O)C(OC(C)=O)C3OC(C)=O)nc(SC)nc2oc1=O (stereo not given)
TGI (LOX IMVI melanoma): > 100 µM | TGI (OVCAR-4 ovarian): > 100 µM | TGI (M19-MEL melanoma): > 100 µM | TGI (COLO 205 colon): > 100 µM | TGI (NCI-H23 lung): > 100 µM | TGI (SK-MEL-5 melanoma): > 100 µM | TGI (SNB-19 CNS): > 100 µM | TGI (HOP-18 NSCLC): > 100 µM | TGI (KM20L2 colon): > 100 µM | TGI (RXF 393 renal): > 100 µM | TGI (OVCAR-5 ovarian): > 100 µM | TGI (NCI-H460 lung): > 100 µM | TGI (A498 renal): > 100 µM | TGI (MOLT-4 leukemia): > 100 µM | TGI (ACHN renal): > 100 µM | TGI (UACC-257 melanoma): > 100 µM | TGI (TK-10 renal): > 100 µM | TGI (EKVX NSCLC): > 100 µM | TGI (UACC-62 melanoma): > 100 µM | TGI (A549 NSCLC): > 100 µM | TGI (SF-295 CNS): > 100 µM | TGI (SNB-78 CNS): > 100 µM | TGI (DLD-1 colon): > 100 µM | TGI (SNB-75 CNS): > 100 µM | TGI (SW-620 colon): > 100 µM | TGI (K-562 leukemia): > 100 µM | TGI (HL-60(TB) leukemia): > 100 µM | TGI (SK-OV-3 ovarian): > 100 µM | TGI (RPMI-8226 leukemia): > 100 µM | TGI (HCT-15 colon): > 100 µM | TGI (CCRF-CEM leukemia): > 100 µM | TGI (HCT-116 colon): > 100 µM | TGI (HCC-2998 colon): > 100 µM | TGI (KM12 colon): > 100 µM | TGI (XF 498 CNS): > 100 µM | TGI (SN12C renal): > 100 µM | TGI (UO-31 renal): > 100 µM | TGI (SK-MEL-2 melanoma): > 100 µM | TGI (MALME-3M melanoma): > 100 µM | TGI (HOP-62 NSCLC): > 100 µM | TGI (CAKI-1 renal): > 100 µM | TGI (OVCAR-8 ovarian): > 100 µM | TGI (LXFL 529 NSCLC): > 100 µM | TGI (U251 CNS): > 100 µM | TGI (SF-539 CNS): > 100 µM | TGI (HOP-92 NSCLC): > 100 µM | TGI (RXF-631 renal): > 100 µM | TGI (786-0 renal): > 100 µM | TGI (HT29 colon): > 100 µM | TGI (IGROV1 ovarian): > 100 µM | TGI (M14 melanoma): > 100 µM | TGI (OVCAR-3 ovarian): > 100 µM | TGI (NCI-H226 lung): > 100 µM | TGI (DMS 114 small cell lung): > 100 µM
